Converted amounts (≈) assume the structure as drawn. Positions of bridges follow the written chain, without caps; N, C: chain ends. Non-standard residues stand in square brackets, D forms with d. Residues, ends and D or L forms follow the SMILES beside them. PEG4 = NCCOCCOCCOCCOCCC(=O)O; S5 = C=CCCC[C@](C)(N)C(=O)O; PEG3 = NCCOCCOCCOCCC(=O)O; PEG2 = NCCOCCOCCC(=O)O; PEG1 = NCCOCCC(=O)O
Tests used:
[1] = tested on: K. pneumoniae; assay type: cell-based, Klebsiella pneumoniae
How it was run: (§1)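 MIC by CLSI-adapted microbroth dilution; MHB or MHB II; inoculum 5×10^5 CFU/ml final; 20-24 h, 37 °C; endpoint = no visible growth.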

[2] = tested on: E. coli; assay type: cell-based, Escherichia coli
How it was run: as §1

[3] = tested on: S. aureus; assay type: cell-based, Staphylococcus aureus
How it was run: as §1

[4] = in vitro; assay type: cell-based; conditions: human
How it was run: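 LDH release (absorbance at 490 nm) measured in the media of cells treated with serially diluted StAMPs or vehicle at 37 °C: 90 min for renal RPTEC, 48 h for liver HepG2. Cells were seeded overnight beforehand and media refreshed before dosing.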

[5] = in vitro; assay type: cell-based; conditions: human, Inhibitory Concentration at 50% Cytotoxicity (IC50) Human Liver Cells (HepG2)
How it was run: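 Cytotoxicity read by CellTiter-Glo luminescence after 48 h at 37 °C exposure to serially diluted StAMPs or vehicle. HepG2 cells were grown in EMEM plus 10% FBS and given 4 h to attach before dosing; peptides came from a 5 mg/mL aqueous stock.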

[6] = tested on: P. aeruginosa; assay type: cell-based, Pseudomonas aeruginosa
How it was run: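 MIC taken as lowest peptide concentration with no visible growth after 20-24 h at 37 °C. Peptide serial dilutions from water stocks met P. aeruginosa inoculum (5×10^5 CFU/ml final) in MHB or MHB II, per a CLSI-adapted microbroth protocol.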

[7] = tested on: A. baumannii; assay type: cell-based, Acinetobacter baumannii
How it was run: as §1

## CC(C)[C@@H]1NC(=O)[C@@](C)(NC(=O)[C@H](C)NC(=O)[C@H](CCCCN)NC(=O)CNC(=O)[C@H](Cc2ccccc2)NC(=O)[C@H](CCCCN)NC(=O)[C@H](CCCCN)NC(=O)[C@H](CCCCN)NC(=O)[C@H](CO)NC(=O)[C@H](Cc2c[nH]cn2)NC(=O)[C@]2(C)CCCC=CCCC[C@](C)(NC(=O)CN)C(=O)NCC(=O)N[C@@H](CCCCN)C(=O)N[C@@H](Cc3ccccc3)C(=O)N2)CCCC=CCCC[C@@](C)(C(=O)N[C@@H](C)C(=O)N[C@@H](CCCCN)C(=O)N[C@@H](Cc2c[nH]c3ccccc23)C(N)=O)NC(=O)[C@H](CCC(=O)O)NC(=O)CNC1=O [compound 67] (H-G[S5]GKF[S5]HSKKKFGKA[S5]VGE[S5]AKW-NH2; staple 2-6, 16-20)
[1]
  Minimum Inhibitory Concentration (MIC) K. pneumoniae: 8 µg/mL
[2]
  Minimum Inhibitory Concentration (MIC) E. coli: 4 µg/mL
[3]
  Minimum Inhibitory Concentration (MIC) S. aureus: 16 µg/mL
[4]
  IC50 at 90 min: 27 µg/mL (≈ 10.4 µM)
[5]
  IC50 at 48 hours: 52 µg/mL (≈ 20.1 µM)
[6]
  Minimum Inhibitory Concentration (MIC) P. aeruginosa: 16 µg/mL
[7]
  Minimum Inhibitory Concentration (MIC) A. baumannii: 4 µg/mL

## CC(C)[C@@H]1NC(=O)[C@@](C)(NC(=O)[C@H](C)NC(=O)[C@H](CCCCN)NC(=O)CNC(=O)[C@H](Cc2c[nH]c3ccccc23)NC(=O)[C@H](CCCCN)NC(=O)[C@H](CCCCN)NC(=O)[C@H](CCCCN)NC(=O)[C@H](CO)NC(=O)[C@H](Cc2c[nH]cn2)NC(=O)[C@]2(C)CCCC=CCCC[C@](C)(NC(=O)CN)C(=O)NCC(=O)N[C@@H](CCCCN)C(=O)N[C@@H](Cc3ccccc3)C(=O)N2)CCCC=CCCC[C@@](C)(C(=O)N[C@@H](C)C(=O)N[C@@H](CCCCN)C(=O)N[C@@H](CCCCN)C(N)=O)NC(=O)[C@H](CCC(=O)O)NC(=O)CNC1=O [compound 68] (H-G[S5]GKF[S5]HSKKKWGKA[S5]VGE[S5]AKK-NH2; staple 2-6, 16-20)
[1]
  Minimum Inhibitory Concentration (MIC) K. pneumoniae: 16 µg/mL
[2]
  Minimum Inhibitory Concentration (MIC) E. coli: 4 µg/mL
[3]
  Minimum Inhibitory Concentration (MIC) S. aureus: >64 µg/mL
[4]
  IC50 at 90 min: 117 µg/mL (≈ 45.5 µM)
[5]
  IC50 at 48 hours: 129 µg/mL (≈ 50.2 µM)
[6]
  Minimum Inhibitory Concentration (MIC) P. aeruginosa: 8 µg/mL
[7]
  Minimum Inhibitory Concentration (MIC) A. baumannii: 4 µg/mL

## CC(C)[C@@H]1NC(=O)[C@@](C)(NC(=O)[C@H](C)NC(=O)[C@H](CCCCN)NC(=O)[C@H](Cc2c[nH]c3ccccc23)NC(=O)[C@H](Cc2ccccc2)NC(=O)[C@H](CCCCN)NC(=O)[C@H](CCCCN)NC(=O)[C@H](CCCCN)NC(=O)[C@H](CO)NC(=O)[C@H](Cc2c[nH]cn2)NC(=O)[C@]2(C)CCCC=CCCC[C@](C)(NC(=O)CN)C(=O)NCC(=O)N[C@@H](CCCCN)C(=O)N[C@@H](Cc3ccccc3)C(=O)N2)CCCC=CCCC[C@@](C)(C(=O)N[C@@H](C)C(=O)N[C@@H](CCCCN)C(=O)N[C@@H](CCCCN)C(N)=O)NC(=O)[C@H](CCC(=O)O)NC(=O)CNC1=O [compound 69] (H-G[S5]GKF[S5]HSKKKFWKA[S5]VGE[S5]AKK-NH2; staple 2-6, 16-20)
[1]
  Minimum Inhibitory Concentration (MIC) K. pneumoniae: 8 µg/mL
[2]
  Minimum Inhibitory Concentration (MIC) E. coli: 4 µg/mL
[3]
  Minimum Inhibitory Concentration (MIC) S. aureus: 32 µg/mL
[4]
  IC50 at 90 min: 24 µg/mL (≈ 9.02 µM)
[5]
  IC50 at 48 hours: 23 µg/mL (≈ 8.64 µM)
[6]
  Minimum Inhibitory Concentration (MIC) P. aeruginosa: 8 µg/mL
[7]
  Minimum Inhibitory Concentration (MIC) A. baumannii: 4 µg/mL

## CC(C)[C@@H]1NC(=O)[C@@](C)(NC(=O)[C@H](CCCCN)NC(=O)[C@H](CCCCN)NC(=O)[C@H](CCCCN)NC(=O)[C@H](CCCCN)NC(=O)[C@H](CCCCN)NC(=O)[C@]2(C)CCCC=CCCC[C@](C)(NC(=O)CN)C(=O)NCC(=O)N[C@@H](CCCCN)C(=O)N[C@@H](Cc3ccccc3)C(=O)N2)CCCC=CCCC[C@@](C)(C(=O)N[C@@H](C)C(=O)N[C@@H](CCCCN)C(=O)N[C@@H](CCCCN)C(N)=O)NC(=O)[C@H](CCC(=O)O)NC(=O)CNC1=O [compound 70] (H-G[S5]GKF[S5]KKKKK[S5]VGE[S5]AKK-NH2; staple 2-6, 12-16)
[1]
  Minimum Inhibitory Concentration (MIC) K. pneumoniae: 4 µg/mL
[2]
  Minimum Inhibitory Concentration (MIC) E. coli: 4 µg/mL
[3]
  Minimum Inhibitory Concentration (MIC) S. aureus: >64 µg/mL
[4]
  IC50 at 90 min: 125 µg/mL (≈ 57.8 µM)
[5]
  IC50 at 48 hours: 102 µg/mL (≈ 47.2 µM)
[6]
  Minimum Inhibitory Concentration (MIC) P. aeruginosa: 4 µg/mL
[7]
  Minimum Inhibitory Concentration (MIC) A. baumannii: 16 µg/mL

## CC(C)[C@@H]1NC(=O)[C@@](C)(NC(=O)[C@H](C)NC(=O)[C@H](CCCCN)NC(=O)CNC(=O)[C@H](Cc2ccccc2)NC(=O)[C@H](CCCCN)NC(=O)[C@H](CCCCN)NC(=O)[C@H](CCCCN)NC(=O)[C@H](CCCCN)NC(=O)[C@H](CCCCN)NC(=O)[C@]2(C)CCCC=CCCC[C@](C)(NC(=O)CN)C(=O)NCC(=O)N[C@@H](CCCCN)C(=O)N[C@@H](Cc3ccccc3)C(=O)N2)CCCC=CCCC[C@@](C)(C(=O)N[C@@H](C)C(=O)N[C@@H](CCCCN)C(=O)N[C@@H](CCCCN)C(=O)NCCOCCC(N)=O)NC(=O)[C@H](CCC(=O)O)NC(=O)CNC1=O [compound 71] (H-G[S5]GKF[S5]KKKKKFGKA[S5]VGE[S5]AKK[PEG1]-NH2; staple 2-6, 16-20)
[1]
  Minimum Inhibitory Concentration (MIC) K. pneumoniae: 4 µg/mL
[2]
  Minimum Inhibitory Concentration (MIC) E. coli: 2 µg/mL
[3]
  Minimum Inhibitory Concentration (MIC) S. aureus: >64 µg/mL
[4]
  IC50 at 90 min: 200 µg/mL (≈ 74.6 µM)
[5]
  IC50 at 48 hours: 247 µg/mL (≈ 92.2 µM)
[6]
  Minimum Inhibitory Concentration (MIC) P. aeruginosa: 4 µg/mL
[7]
  Minimum Inhibitory Concentration (MIC) A. baumannii: 2 µg/mL

## CC(C)[C@@H]1NC(=O)[C@@](C)(NC(=O)[C@H](C)NC(=O)[C@H](CCCCN)NC(=O)CNC(=O)[C@H](Cc2ccccc2)NC(=O)[C@H](CCCCN)NC(=O)[C@H](CCCCN)NC(=O)[C@H](CCCCN)NC(=O)[C@H](CCCCN)NC(=O)[C@H](CCCCN)NC(=O)[C@]2(C)CCCC=CCCC[C@](C)(NC(=O)CN)C(=O)NCC(=O)N[C@@H](CCCCN)C(=O)N[C@@H](Cc3ccccc3)C(=O)N2)CCCC=CCCC[C@@](C)(C(=O)N[C@@H](C)C(=O)N[C@@H](CCCCN)C(=O)N[C@@H](CCCCN)C(=O)NCCOCCOCCC(N)=O)NC(=O)[C@H](CCC(=O)O)NC(=O)CNC1=O [compound 72] (H-G[S5]GKF[S5]KKKKKFGKA[S5]VGE[S5]AKK[PEG2]-NH2; staple 2-6, 16-20)
[1]
  Minimum Inhibitory Concentration (MIC) K. pneumoniae: 4 µg/mL
[2]
  Minimum Inhibitory Concentration (MIC) E. coli: 2 µg/mL
[3]
  Minimum Inhibitory Concentration (MIC) S. aureus: >64 µg/mL
[4]
  IC50 at 90 min: 200 µg/mL (≈ 73.4 µM)
[5]
  IC50 at 48 hours: 275 µg/mL (≈ 101 µM)
[6]
  Minimum Inhibitory Concentration (MIC) P. aeruginosa: 4 µg/mL
[7]
  Minimum Inhibitory Concentration (MIC) A. baumannii: 2 µg/mL

## CC(C)[C@@H]1NC(=O)[C@@](C)(NC(=O)[C@H](C)NC(=O)[C@H](CCCCN)NC(=O)CNC(=O)[C@H](Cc2ccccc2)NC(=O)[C@H](CCCCN)NC(=O)[C@H](CCCCN)NC(=O)[C@H](CCCCN)NC(=O)[C@H](CCCCN)NC(=O)[C@H](CCCCN)NC(=O)[C@]2(C)CCCC=CCCC[C@](C)(NC(=O)CN)C(=O)NCC(=O)N[C@@H](CCCCN)C(=O)N[C@@H](Cc3ccccc3)C(=O)N2)CCCC=CCCC[C@@](C)(C(=O)N[C@@H](C)C(=O)N[C@@H](CCCCN)C(=O)N[C@@H](CCCCN)C(=O)NCCOCCOCCOCCC(N)=O)NC(=O)[C@H](CCC(=O)O)NC(=O)CNC1=O [compound 73] (H-G[S5]GKF[S5]KKKKKFGKA[S5]VGE[S5]AKK[PEG3]-NH2; staple 2-6, 16-20)
[1]
  Minimum Inhibitory Concentration (MIC) K. pneumoniae: 4 µg/mL
[2]
  Minimum Inhibitory Concentration (MIC) E. coli: 2 µg/mL
[3]
  Minimum Inhibitory Concentration (MIC) S. aureus: >64 µg/mL
[4]
  IC50 at 90 min: 671 µg/mL (≈ 242 µM)
[5]
  IC50 at 48 hours: 407 µg/mL (≈ 147 µM)
[6]
  Minimum Inhibitory Concentration (MIC) P. aeruginosa: 4 µg/mL
[7]
  Minimum Inhibitory Concentration (MIC) A. baumannii: 2 µg/mL

## CC(C)[C@@H]1NC(=O)[C@@](C)(NC(=O)[C@H](C)NC(=O)[C@H](CCCCN)NC(=O)CNC(=O)[C@H](Cc2ccccc2)NC(=O)[C@H](CCCCN)NC(=O)[C@H](CCCCN)NC(=O)[C@H](CCCCN)NC(=O)[C@H](CCCCN)NC(=O)[C@H](CCCCN)NC(=O)[C@]2(C)CCCC=CCCC[C@](C)(NC(=O)CN)C(=O)NCC(=O)N[C@@H](CCCCN)C(=O)N[C@@H](Cc3ccccc3)C(=O)N2)CCCC=CCCC[C@@](C)(C(=O)N[C@@H](C)C(=O)N[C@@H](CCCCN)C(=O)N[C@@H](CCCCN)C(=O)NCCOCCOCCOCCOCCC(N)=O)NC(=O)[C@H](CCC(=O)O)NC(=O)CNC1=O [compound 74] (H-G[S5]GKF[S5]KKKKKFGKA[S5]VGE[S5]AKK[PEG4]-NH2; staple 2-6, 16-20)
[1]
  Minimum Inhibitory Concentration (MIC) K. pneumoniae: 4 µg/mL
[2]
  Minimum Inhibitory Concentration (MIC) E. coli: 2 µg/mL
[3]
  Minimum Inhibitory Concentration (MIC) S. aureus: >64 µg/mL
[4]
  IC50 at 90 min: > 200 µg/mL
[5]
  IC50 at 48 hours: 430 µg/mL (≈ 153 µM)
[6]
  Minimum Inhibitory Concentration (MIC) P. aeruginosa: 4 µg/mL
[7]
  Minimum Inhibitory Concentration (MIC) A. baumannii: 2 µg/mL
